Reference: patent publication US20150252048A1, “SUBSTITUTED N-(3-PYRIMIDIN-4-YL)PHENYL)ACRYLAMIDE ANALOGS AS TYROSINE RECEPTOR KINASE BTK INHIBITORS” (UNIVERSITY OF UTAH RESEARCH FOUNDATION, priority 2012, published 2015)

Tests used:
Pharmacokinetics in mice = type: in vivo; conditions: mouse, plasma
Description: The pharmacokinetic behavior of a representative disclosed compound, compound 3 (N-(3-(6-((3-morpholinophenyl)amino)-1H-pyrazolo[3,4-d]pyrimidin-4-yl)phenyl)acrylamide), which corresponds to compound 3 in Table I, was evaluated in mice. As used herein, “test compound” refers to compound 3. The study was carried out using three animals per dosing group. Animals were dosed as follows: a) Group 1 were administered 5 mg/kg of test compound by i.v. administration; b) Group 2 were dosed at 10 mg/kg by oral gavage using the base form of the test compound; and c) Group 3 were dosed at 10 mg/kg by oral gavage using a HCl salt of the test compound. Plasma concentration of the test compound was determined on samples take at the following time points: 0.08, 0.25, 0.50, 1, 2, 4, 8, and 24 hrs. Individual values were within 25% of the mean.

Microsomal stability = type: in vitro ADME, rat; conditions: for Compound Remaining: rat microsomes 0.5 mg protein/mL, 1 μM
Description: Data were also obtained for the stability of Compound 3 when incubated with a microsomal preparation. Drug metabolism can occur, at least in part, in cellular microsomes, and thus the assay assesses the stability of drug to metabolic modification. The concentration of compound 3 was 1 μM in the assay system and the indicated microsomes were present at 0.5 mg total protein per milliliter. The concentration of intact drug was determined at the indicated timepoints using a LC-MS/MS assay. The enzyme activity of the microsomes used in this study were assessed using a positive control, testosterone.

Pharmacokinetics in rat = type: in vivo, male Sprague Dawley rats
Description: The pharmacokinetic behavior of a representative disclosed compound, compound 3 (N-(3-(6-((3-morpholinophenyl)amino)-1H-pyrazolo[3,4-d]pyrimidin-4-yl)phenyl)acrylamide), which corresponds to compound 3 in Table I, was also evaluated in rat. A study was conducted using three male Sprague Dawley rats in each group as shown below:
The solution formulations were prepared as follows: (A) intravenous route (“i.v.”): a weighed quantity of 3 (10.45 mg) was transferred into a 10 mL clean glass vial. To this 0.231 mL of ethanol (4.5%) was added, vortexed and sonicated. To this 1.028 mL of propylene glycol (20%) was added, vortexed and sonicated. 1.543 mL of PEG400 (30%) was added, vortexed and sonicated. Finally 2.340 mL of water (45.5%) was added gradually, vortexed and sonicated to make a solution of 2 mg/mL concentration. The final solution was filtered using syringe filter (0.22 μm).; and (B) a weighed quantity of SC-1344 (27.43 mg) was transferred into a 10 mL clean glass vial. To this 0.304 mL of ethanol (4.5%) was added, vortexed and sonicated. To this 1.350 mL of propylene glycol (20%) was added, vortexed and sonicated. 2.024 mL of PEG400 (30%) was added, vortexed and sonicated. Finally 3.070 mL of water (45.5%) was added gradually, vortexed and sonicated to make a solution of 4 mg/mL concentration. The final solution was filtered using syringe filter (0.22 μm).
Bioanalysis was performed using fit-for-purpose LC-MS/MS method for the quantification of 3 in rat plasma samples. The calibration curve (CC) for the method consisted of nine non-zero calibration standards along with a double blank and zero standard samples. Study samples were analyzed along with two sets of quality control samples (6 QC samples; low, medium and high QC samples in triplicate). Briefly, the LC-MS/MS method used the following parameters: a) gradient mobile phase (Pump A: 0.1% Formic acid in water; Pump B: 100% methanol); b) XBridge C8, 50×4.6 mm, 3.5μ (Waters) column; c) 10 μL injection volume; d) 1.00 mL/min flow rate; e) 3.50 min run time; f) 10° C. sample cooler temperature; and g) 40° C. column oven temperature. The sample calibration curve was 1.02-1023 ng/mL, with an internal standard (telmisartan) at 0.2 μg/mL. Briefly, biological samples were prepared as follows: 50 μL of sample was mixed with 150 μL of internal standard, then mixture was vortexed for 5 min at 800 rpm, followed by centrifugation at 4000 rpm for 5 min; 150 μL of the sample supernatant was transferred into a separate tube and diluted with 75 μL of methanol: water (1:1), followed by injection into LC/MS/MS.
Plasma pharmacokinetic parameters were calculated using the non-compartmental analysis tool of Phoenix software (Version 6.3) and were determined from individual animals in each group. The area under the plasma concentration-time curve (AUC0-t and AUCinf), elimination half-life (T1/2), clearance (CL), volume of distribution (Vss) and Mean residence time (MRT) were calculated from intravenous group. The peak plasma concentration (Cmax), time to achieve peak plasma concentration (Tmax), AUC0-t and AUCinf, and absolute oral bioavailability (F) were calculated from the oral group.
The mean plasma concentration-time profiles are shown in FIGS. 10 and 11, i.e. the mean concentration values of the individual values obtained from each rat in the study group at the indicated time points.

[1] = po, 10 mg/kg, p.o. (HCl salt), 10 mg/kg oral gavage
[2] = po, 10 mg/kg, p.o. (base form), 10 mg/kg oral gavage

Cmax (Pharmacokinetics in mice; iv, 5 mg/kg): 3520 ng/mL
Tmax (Pharmacokinetics in mice; iv, 5 mg/kg): 4.8 min
clearance (Pharmacokinetics in mice; iv, 5 mg/kg): 67 mL/min/kg
half-life (Pharmacokinetics in mice; iv, 5 mg/kg): 90 min
AUC(0-t) (Pharmacokinetics in mice; iv, 5 mg/kg, i.v., 5 mg/kg, read-out: AUC0-4): 1180 ng·h/mL
AUC(0-t) (Pharmacokinetics in mice; iv, 5 mg/kg, i.v., 5 mg/kg, read-out: AUC0-t): 1230 ng·h/mL
Vd (Pharmacokinetics in mice; iv, 5 mg/kg, read-out: Vss): 2.6 L/kg
Cmax (Pharmacokinetics in mice; [1]): 465 ng/mL
Tmax (Pharmacokinetics in mice; [1]): 15 min
bioavailability (Pharmacokinetics in mice; [1]): 3%
AUC(0-t) (Pharmacokinetics in mice; po, 10 mg/kg, p.o. (HCl salt), 10 mg/kg oral gavage, read-out: AUC0-4): 357 ng·h/mL
Cmax (Pharmacokinetics in mice; [2]): 299 ng/mL
Tmax (Pharmacokinetics in mice; [2]): 30 min
bioavailability (Pharmacokinetics in mice; [2]): 2.3%
AUC(0-t) (Pharmacokinetics in mice; po, 10 mg/kg, p.o. (base form), 10 mg/kg oral gavage, read-out: AUC0-4): 270 ng·h/mL
half-life at 1 μM (Microsomal stability; rat microsomes): 14 min
Compound Remaining (Microsomal stability; 0 min): 100 % of initial amount
Compound Remaining (Microsomal stability; 10 min): 55.2 % of initial amount
Compound Remaining (Microsomal stability; 20 min): 33.6 % of initial amount
Compound Remaining (Microsomal stability; 30 min): 20.5 % of initial amount
Compound Remaining (Microsomal stability; 60 min): 5.13 % of initial amount
microsomal CLint at 1 μM (Microsomal stability; rat microsomes, read-out: CLinit (intrinsic clearance)): 100 µL/min/mg
AUC(0-t) (Pharmacokinetics in rat; IV 5 mg/kg, solution, 5 mg/kg): 1063 ng·h/mL
CL (Pharmacokinetics in rat; IV 5 mg/kg, solution, 5 mg/kg): 79.7 mL/min/kg
T1/2 (Pharmacokinetics in rat; IV 5 mg/kg, solution, 5 mg/kg): 163 min
Vss (Pharmacokinetics in rat; IV 5 mg/kg, solution, 5 mg/kg): 7.91 L/kg
F (absolute oral bioavailability) (Pharmacokinetics in rat; PO 20 mg/kg vs IV 5 mg/kg, AUC0-t and nominal doses used): 2.44%
Cmax (Pharmacokinetics in rat; PO 20 mg/kg, solution, 20 mg/kg): 23.1 ng/mL
AUC(0-inf) (Pharmacokinetics in rat; male, Sprague Dawley, plasma, IV 5 mg/kg, solution): 1070 ng·h/mL
Cmax (Pharmacokinetics in rat; male, Sprague Dawley, plasma, IV 5 mg/kg, solution, read-out: Cmax (back-extrapolated concentration)): 1840 ng/mL
AUC(0-inf) (Pharmacokinetics in rat; male, Sprague Dawley, plasma, PO 20 mg/kg, solution, one animal data): 254 ng·h/mL
Tmax (Pharmacokinetics in rat; male, Sprague Dawley, plasma, PO 20 mg/kg, solution, read-out: Tmax (median)): 120 min
AUC(0-t) (Pharmacokinetics in rat; male, Sprague-Dawley, plasma, PO 20 mg/kg, solution, read-out: AUC0-t): 104 ng·h/mL
Compound: C=CC(=O)Nc1cccc(-c2nc(Nc3cccc(N4CCOCC4)c3)nc3[nH]ncc23)c1 [Compound 3, N-(3-(6-((3-morpholinophenyl)amino)-1H-pyrazolo[3,4-d]pyrimidin-4-yl)phenyl)acrylamide]
